# Laboratory results: paper PMC11222247, “PEGylation renders carnosine resistant to hydrolysis by serum carnosinase and increases renal carnosine levels” (Amino Acids, 2024)
# Marks after values point to notes of the source that are not given here.
# Assays:
# [1] = Pharmacokinetics in kidney of mice after single intravenous injection (LC-MS/MS); type: in vivo, C57BL/6J mice; conditions: for half-life: 1000 mg/kg i.v. single injection, noncompartmental, naive pooled; for AUC: 0 to 240 min sampling
# Procedure: (§1) Six- to eight-week-old male C57BL/6J (20–25 g) mice were purchased from Sino-British SIPPR/BK Lab Animal Ltd (Shanghai, China). After ad libitum feeding for one week, the mice were randomly divided into three groups: the control group (n = 3, saline treated), the PEG-car treated group (n = 3) and the L-carnosine treated group (n = 3). Hereof, each mouse was respectively injected intravenously (i.v.) with saline, PEG-car (1000 mg/kg) or L-carnosine (1000 mg/kg) through the tail vein. The mice were anaesthetized by the inhalation of isoflurane during the injection. Blood samples were collected in EDTA tubes by cardiac puncture at 0, 5, 15, 30, 60, 120, 240 min after the administration of PEG-car or L-carnosine. Sera were obtained by centrifugation of the blood sample at 6800 g for 6 min at 4 ℃. Right after sacrifice, the mice were perfused by phosphate-buffered saline to remove the remaining blood. The brains and kidneys were carefully isolated thereafter. The tissues were stored at − 80 ℃and the sera were stored at − 20 ℃ untill use.
# (§2) PEG-car or L-carnosine levels in serum and tissues were determined by liquid chromatography tandem-mass spectrometry (LC-MS/MS). Warfarin (Sigma-Aldrich, St. Louis, MO, USA) was used as internal standard (IS). The entire procedure for sample and standard preparation was carried out on ice. An aliquot of 20 µL serum or homogenized 40 mg tissue were pipetted into centrifuge tube and then 400 µL methanol was added for protein precipitation. After spiking the IS (40 ng for serum and 4 ng for kidney), the samples were vortexed for 1 min and then centrifuged at 18,000 g for 7 min at 4 ℃. The supernatant was used for the assay. The calibration curves were prepared by spiking the known concentrations of PEG-car or L-carnosine into serum or tissue homogenates obtained from untreated mice.
# (§3) The concentrations were measured by a UHPLC system (Shimadzu LC-40D XS, Japan) coupled with electrospray ionization (ESI) and triple quadrupole-ion trap mass spectrometry (AB SCIEX QTRAP® 6500+, Singapore). PEG-car was performed in ACQUITY UPLC BEH C18 column (2.1 mm×50 mm, 1.7 μm, Waters, USA) with a 0.6 mL/min flow rate of mobile phase using gradient elution of ultrapure water (2mM Ammonium acetate (Sinopharm Chemical Reagent Co., Ltd, Shanghai, China) containing 0.1% formic acid, eluent A) and acetonitrile (2mM Ammonium formate (Sinopharm Chemical Reagent Co., Ltd, Shanghai, China) containing 0.1% formic acid, eluent B). The solvent gradient was changed according to the following program: 0–0.01 min 10%B, 0.01–0.6 min 10-90%B, 0.6–1.2 min 90%B, 1.2–1.21 min 90%-10%B, 1.21–1.5 min 10%B. L-carnosine was performed in ACQUITY UPLC BEH Amide column (2.1 mm×50 mm, 1.7 μm, Waters, USA) with a 0.6 mL/min flow rate of mobile phase using gradient elution of ultrapure water (2mM Ammonium acetate containing 0.1% formic acid, eluent A) and acetonitrile (2mM Ammonium formate containing 0.1% formic acid, eluent B). The solvent gradient was as follows: 0–0.01 min 90%B, 0.01–0.6 min 90%-40%B, 0.6–1.2 min 40%B, 1.2–1.21 min 40-90%B, 1.21–1.5 min 90%B. The injection volume was 5 µL. The QTRAP® 6500 + was operated in positive mode, multiple reaction monitoring (MRM) in unit resolution for Q1 and Q3. For detection of PEG-car, three transitions were set with a Q1 mass of 776.4, and Q3 masses of 109.9 (Collision Energy (CE) 119), 126.8 (CE 51), 707.2 (CE 38). For L-carnosine, four transitions were set with a Q1 mass of 227.3, and Q3 masses of 83.1 (CE 53), 110.0(CE 31), 156.2(CE 21), 210.2(CE 16). Pharmacokinetic parameters were calculated by noncompartmental analysis using a sparse sampling and naïve pooled approach (Phoenix WinNonLin 7.0, Certara, Mountain View, CA, USA).
# [2] = target: T1, carnosinase-1 (recombinant Human CN-1) (Homo sapiens, UniProt Q96KN2); experiment: Enzymatic hydrolysis by carnosinase-1 (histidine release, fluorometric assay); type: biochemical; conditions: for Fluorescence (proportional to histidine release) on incubation with recombinant CN-1: 1 mM substrate, Tris/HCl 50 mM pH 7.5, 30 °C, 5-80 min, Fig. 3; for Hydrolysis in human serum: as worded in the abstract: human serum
# T1 construct: purchased Novoprotein Company, Suzhou, China
# T1 sequence (Q96KN2 26-507): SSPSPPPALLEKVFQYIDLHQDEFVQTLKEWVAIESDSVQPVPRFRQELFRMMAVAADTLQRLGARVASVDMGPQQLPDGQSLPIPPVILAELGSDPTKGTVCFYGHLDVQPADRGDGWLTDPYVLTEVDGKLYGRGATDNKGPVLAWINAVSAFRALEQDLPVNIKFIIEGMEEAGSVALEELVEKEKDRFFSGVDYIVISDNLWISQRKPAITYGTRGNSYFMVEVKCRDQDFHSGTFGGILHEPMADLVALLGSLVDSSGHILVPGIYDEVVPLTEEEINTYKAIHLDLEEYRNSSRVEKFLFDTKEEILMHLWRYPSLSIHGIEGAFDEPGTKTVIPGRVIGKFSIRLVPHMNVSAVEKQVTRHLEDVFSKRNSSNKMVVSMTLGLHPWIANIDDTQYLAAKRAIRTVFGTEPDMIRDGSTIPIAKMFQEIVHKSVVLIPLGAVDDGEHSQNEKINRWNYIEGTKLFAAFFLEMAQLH
# Procedure: The resistance of the PEG-car to the enzymatic hydrolysis by carnosinase-1 was assayed by a previously designed enzymatic activity test (Lenney et al. [1982]). Briefly, PEG, PEG-car and L-carnosine (1 mM) respectively were incubated in Tris/HCl buffer (50 mM, pH 7.5) at 30 °C with carnosinase-1 (recombinant Human CN-1, Novoprotein Company, Suzhou, China). Aliquots of each sample taken after 5, 10, 20, 30, 40, 60, 80 min, and the enzymatic reaction was stopped by addition of 50 µL of 1% trichloroacetic acid (TCA). After addition of 50 µL of 5 mg/mL o-pthaldialdehyde dissolved in 2 M NaOH and incubation for 30 min at 30 °C, the amount of liberated histidine was quantified by fluorometric assay conducted by a multifunctional enzyme marker reader.
# [3] = Pharmacokinetics in serum of mice after single intravenous injection (LC-MS/MS); type: in vivo, C57BL/6J mice; conditions: for half-life: 1000 mg/kg i.v. single injection, noncompartmental, naive pooled; for AUC: 0 to 240 min sampling
# Procedure: as §1, §2, §3
# [4] = male, C57BL/6J, mouse, iv, read-out: Half-Life
# [5] = male, C57BL/6J, mouse, iv, 1000 mg/kg i.v., at 5 min
"half-life [1, 4] [h]","Cmax [1, 5] [ng/g]","clearance ([3]; male, C57BL/6J, mouse, iv, 1000 mg/kg i.v.) [mL/min/kg]","half-life [3, 4] [h]","AUC ([3]; male, C57BL/6J, mouse, iv, 1000 mg/kg i.v., read-out: AUC (converted)) [µg·h/mL]","Cmax [3, 5] [µg/mL]","Vd ([3]; male, C57BL/6J, mouse, iv, 1000 mg/kg i.v., read-out: Vss) [L/kg]",Molecule,CL ([1]; 1000 mg/kg i.v.),Vss ([1]; 1000 mg/kg i.v.),half-life [1],AUC ([1]; 1000 mg/kg i.v.),"Cmax (5 min) ([1]; 1000 mg/kg i.v., at 5 min)",Fluorescence (proportional to histidine release) on incubation with recombinant CN-1 [2],Hydrolysis in human serum [2],Inhibition of CN-1 activity ([2]; mixture of PEG-car with L-carnosine incubated with recombinant CN-1),CL ([3]; 1000 mg/kg i.v.) [mL/min/kg],Vss ([3]; 1000 mg/kg i.v.),half-life [3] [h],AUC ([3]; 1000 mg/kg i.v.),"Cmax (5 min) ([3]; 1000 mg/kg i.v., at 5 min) [µg/mL]"
–,–,–,–,–,–,–,mPEG-carnosine,3.47^d* g/min/kg,830^e* g/kg,168* min,"173,340^c* ng/mg tissue·min",3899^b* ng/mg tissue,approximately six times lower than that of the carnosine sample,highly resistant to hydrolysis,the activity of CN-1 cannot be inhibited by PEG-car,14.84,294* mL/kg,0.533,"67,730 µg/mL·min",2671
1.75,5.91e+06,15.4,1.03,1080,2860,0.606,"NCCC(=O)N[C@@H](Cc1cnc[nH]1)C(=O)O [L-carnosine, reference compound]",1.59^d g/min/kg,208^e g/kg,–,"518,040^c ng/mg tissue·min",–,fluorescence increased with time,rapidly hydrolyzed,–,–,–,–,–,–
